In one experiment the target is SMARCA2 (Homo sapiens, UniProt P51531). As to the kind of experiment: HiBiT assay for protein degradation, Hela SMARCA2-HiBiT cells (A series).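 For SMARC A2 Hela HiBit Dmax (%): 24 h compound treatment.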 It counts as cell-based. Set-up: Hela cells were genetically modified via CRISPR/Cas9 to fuse HiBiT to the carboxy terminus of SMARCA2; host or cells: HeLa (CRISPR/Cas9 HiBiT knock-in). The note with it: for DC50: read-out: SMARC A2 Hela HiBit DC50; for Dmax: read-out: SMARC A2 Hela HiBit Dmax (%). The method in brief:
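SMARCA2 degradation was measured in HeLa cells whose endogenous SMARCA2 carries a carboxy-terminal HiBiT tag introduced by CRISPR/Cas9 (Promega CS302365). Cells were maintained in DMEM with FBS and penicillin-streptomycin. SMARCA2 levels were read at the end of the experiment by Nano-Glo® HiBiT lytic luminescence (Promega N3050) and analyzed in GraphPad Prism.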
Background: HiBiT is a short tag that completes a luciferase, so light tracks the accessible tagged protein.

In another experiment the target is SMARCA4 (Homo sapiens, UniProt P51532). As to the kind of experiment: HiBiT assay for protein degradation, Hela SMARCA4-HiBiT cells (A series). It counts as cell-based. The arrangement: fuse HiBiT to the carboxy terminus of SMARCA2 (Promega CS302365) or SMARCA4 (Promega CS3023225); host or cells: HeLa (CRISPR/Cas9 HiBiT knock-in). As to conditions: for DC50: read-out: SMARC A4 Hela HiBit DC50. A digest of the protocol:
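SMARCA4 degradation was measured in HeLa cells in which HiBiT had been knocked into the SMARCA4 carboxy terminus via CRISPR/Cas9 (Promega CS3023225). Cells were maintained in DMEM with FBS and penicillin-streptomycin. At the end of treatment, SMARCA4 levels were read by lytic HiBiT luminescence (Nano-Glo®, Promega N3050), and data were analyzed with GraphPad Prism.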

Where [1] appears, read: Hela SMARCA2-HiBiT cells, 24 hours treatment.
The mark [2] stands for this setting: Hela SMARCA4-HiBiT cells, 24 hours treatment.
Where [3] appears, read: Hela SMARCA4-HiBiT cells, 24 hours treatment, read-out: SMARC A4 Hela HiBit Dmax.
Where [4] appears, read: Hela SMARCA4-HiBiT cells, 24 hours treatment, read-out: SMARC A4 Hela HiBit Dmax(%).

Each structure is given as a SMILES string. Like-named read-outs stand apart in the source and are kept apart here.

Chain of SMARCA2 (P51531 whole entry): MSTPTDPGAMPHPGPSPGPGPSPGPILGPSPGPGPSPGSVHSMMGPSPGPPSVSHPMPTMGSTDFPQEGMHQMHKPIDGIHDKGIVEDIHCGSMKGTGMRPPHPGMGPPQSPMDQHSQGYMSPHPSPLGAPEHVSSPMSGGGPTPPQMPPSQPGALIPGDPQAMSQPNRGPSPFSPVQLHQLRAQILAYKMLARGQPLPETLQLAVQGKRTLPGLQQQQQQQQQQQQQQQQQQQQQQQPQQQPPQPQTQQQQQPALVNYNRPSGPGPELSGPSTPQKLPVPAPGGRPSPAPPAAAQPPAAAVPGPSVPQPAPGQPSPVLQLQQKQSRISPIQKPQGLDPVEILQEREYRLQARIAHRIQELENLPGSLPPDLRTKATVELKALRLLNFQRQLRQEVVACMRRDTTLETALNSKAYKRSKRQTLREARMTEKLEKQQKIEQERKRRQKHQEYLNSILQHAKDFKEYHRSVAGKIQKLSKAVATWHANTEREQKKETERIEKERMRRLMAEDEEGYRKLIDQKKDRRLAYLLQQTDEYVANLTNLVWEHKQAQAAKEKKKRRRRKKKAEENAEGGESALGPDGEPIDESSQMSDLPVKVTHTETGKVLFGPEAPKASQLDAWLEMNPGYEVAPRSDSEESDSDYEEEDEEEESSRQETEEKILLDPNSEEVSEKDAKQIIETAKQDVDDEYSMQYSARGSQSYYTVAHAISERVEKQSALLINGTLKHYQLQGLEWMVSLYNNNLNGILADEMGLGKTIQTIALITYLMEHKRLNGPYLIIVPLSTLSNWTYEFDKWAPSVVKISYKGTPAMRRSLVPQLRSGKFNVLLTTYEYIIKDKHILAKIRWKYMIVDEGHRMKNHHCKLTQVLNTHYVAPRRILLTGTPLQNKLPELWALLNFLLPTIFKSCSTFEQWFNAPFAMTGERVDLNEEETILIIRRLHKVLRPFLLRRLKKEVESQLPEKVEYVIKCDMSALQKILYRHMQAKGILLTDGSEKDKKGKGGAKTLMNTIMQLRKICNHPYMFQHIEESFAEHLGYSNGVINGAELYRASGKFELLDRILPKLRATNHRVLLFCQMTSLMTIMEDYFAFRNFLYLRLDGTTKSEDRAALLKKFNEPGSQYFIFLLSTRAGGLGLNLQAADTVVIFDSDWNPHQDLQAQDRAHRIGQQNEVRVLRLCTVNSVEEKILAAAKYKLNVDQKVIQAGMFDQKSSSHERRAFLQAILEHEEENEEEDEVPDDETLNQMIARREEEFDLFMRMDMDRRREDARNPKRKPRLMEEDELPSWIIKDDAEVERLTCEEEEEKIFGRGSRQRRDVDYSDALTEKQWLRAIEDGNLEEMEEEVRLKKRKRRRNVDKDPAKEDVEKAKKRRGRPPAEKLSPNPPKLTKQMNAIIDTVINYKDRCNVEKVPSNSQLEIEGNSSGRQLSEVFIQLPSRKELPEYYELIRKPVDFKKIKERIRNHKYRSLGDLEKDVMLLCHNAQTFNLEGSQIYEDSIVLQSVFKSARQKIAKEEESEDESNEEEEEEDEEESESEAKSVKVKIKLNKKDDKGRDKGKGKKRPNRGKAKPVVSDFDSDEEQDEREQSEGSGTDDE
Chain of SMARCA4 (P51532 whole entry): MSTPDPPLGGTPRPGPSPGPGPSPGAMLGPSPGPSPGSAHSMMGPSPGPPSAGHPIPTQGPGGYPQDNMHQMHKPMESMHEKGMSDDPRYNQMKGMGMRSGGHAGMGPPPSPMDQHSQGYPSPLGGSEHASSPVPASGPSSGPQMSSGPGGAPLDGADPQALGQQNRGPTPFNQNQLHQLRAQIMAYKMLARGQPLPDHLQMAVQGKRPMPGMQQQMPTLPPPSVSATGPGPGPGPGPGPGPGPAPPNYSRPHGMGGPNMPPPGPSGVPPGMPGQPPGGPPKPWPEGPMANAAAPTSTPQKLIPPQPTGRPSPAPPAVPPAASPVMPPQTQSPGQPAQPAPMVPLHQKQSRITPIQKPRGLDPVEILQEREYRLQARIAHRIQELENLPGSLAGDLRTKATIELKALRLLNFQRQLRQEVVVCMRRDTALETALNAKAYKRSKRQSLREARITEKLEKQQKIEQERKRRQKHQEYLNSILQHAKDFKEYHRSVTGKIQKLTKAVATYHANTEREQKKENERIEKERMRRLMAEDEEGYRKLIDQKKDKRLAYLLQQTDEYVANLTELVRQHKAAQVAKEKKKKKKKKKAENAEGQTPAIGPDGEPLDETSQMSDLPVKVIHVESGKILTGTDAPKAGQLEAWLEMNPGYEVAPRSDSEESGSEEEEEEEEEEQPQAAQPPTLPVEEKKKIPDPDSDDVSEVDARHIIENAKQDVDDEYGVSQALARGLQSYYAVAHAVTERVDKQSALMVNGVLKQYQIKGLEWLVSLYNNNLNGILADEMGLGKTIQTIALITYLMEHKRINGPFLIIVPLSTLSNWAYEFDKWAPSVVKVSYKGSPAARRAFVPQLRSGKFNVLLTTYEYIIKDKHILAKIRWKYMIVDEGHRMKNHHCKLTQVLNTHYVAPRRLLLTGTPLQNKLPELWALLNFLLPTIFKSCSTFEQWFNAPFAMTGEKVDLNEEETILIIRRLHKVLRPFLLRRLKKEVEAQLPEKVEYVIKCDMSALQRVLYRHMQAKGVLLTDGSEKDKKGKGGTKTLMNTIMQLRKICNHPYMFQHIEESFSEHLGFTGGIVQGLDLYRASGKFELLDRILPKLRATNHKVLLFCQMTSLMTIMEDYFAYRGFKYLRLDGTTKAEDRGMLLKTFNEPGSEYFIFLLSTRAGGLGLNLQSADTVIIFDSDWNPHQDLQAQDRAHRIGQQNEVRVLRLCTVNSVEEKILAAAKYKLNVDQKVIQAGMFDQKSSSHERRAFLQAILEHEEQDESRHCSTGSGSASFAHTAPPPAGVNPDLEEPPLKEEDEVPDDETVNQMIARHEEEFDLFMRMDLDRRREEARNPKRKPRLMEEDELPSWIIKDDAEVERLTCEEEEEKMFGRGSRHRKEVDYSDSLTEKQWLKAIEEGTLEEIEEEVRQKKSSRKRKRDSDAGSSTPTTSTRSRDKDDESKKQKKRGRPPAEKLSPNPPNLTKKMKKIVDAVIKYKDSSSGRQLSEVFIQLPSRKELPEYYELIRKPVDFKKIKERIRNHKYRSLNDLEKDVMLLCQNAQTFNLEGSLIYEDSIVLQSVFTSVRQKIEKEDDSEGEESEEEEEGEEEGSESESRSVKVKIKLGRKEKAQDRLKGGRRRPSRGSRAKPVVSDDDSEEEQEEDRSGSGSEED

A word on the DC50: it is the concentration at which degradation of the target reaches its halfway point. One may read the Dmax as the largest share of the target that was removed. Consider `COCCOCCOC[C@H](NC(=O)[C@@H]1C[C@@H](O)CN1C(=O)[C@@H](n1cc([C@H]2CC[C@H](CN3CCC(c4ccc5c(c4)-n4c(nc(=O)c6c(Cl)cccc64)C5(C)C)CC3)CC2)nn1)C(C)(C)C)c1ccc(-c2scnc2C)cc1` [Compound A92], for which the results for the DC50 at SMARCA2 (setting [1]) and on SMARCA4 (setting [2]) were below 10 nM and above 1000 nM, respectively. In addition, the maximal degradation (Dmax) on SMARCA2 (setting [1]) is 70 to 90%; at SMARCA4 (setting [3]), below 50%.

With `Cc1ncsc1-c1ccc([C@H](CN2CC(C)(O)C2)NC(=O)[C@@H]2C[C@@H](O)CN2C(=O)[C@@H](n2cc([C@H]3CC[C@H](CN4CCC(c5ccc6c(c5)-n5c(nc(=O)c7c(Cl)cccc75)C65CCCCC5)CC4)CC3)nn2)C(C)(C)C)cc1` [Compound A71, (2S,4R)-1-((S)-2-(4-((1r,4S)-4-((4-(4′-chloro-5′-oxo-5′H-spiro[cyclohexane-1,7′-indolo[1,2-a]quinazolin]-10′-yl)piperidin-1-yl)methyl)cyclohexyl)-1H-1,2,3-triazol-1-yl)-3,3-dimethylbutanoyl)-4-hydroxy-N—((R)-2-(3-hydroxy-3-methylazetidin-1-yl)-1-(4-(4-methylthiazol-5-yl)phenyl)ethyl)pyrrolidine-2-carboxamide], the DC50 on SMARCA2 (setting [1]) is below 100 nM; on SMARCA4 (setting [2]) it was above 1000 nM. Also, the Dmax was above 90% at SMARCA2 (setting [1]) and 50 to 69% on SMARCA4 (setting [4]).

Take `Cc1ncsc1-c1ccc([C@H](CN2CCOCC2)NC(=O)[C@@H]2C[C@@H](O)CN2C(=O)[C@@H](NC(=O)C23CCC(CN4CCC(c5ccc6c(c5)C5(CCCCC5)c5nc(=O)c7c(Br)cccc7n5-6)CC4)(CC2)C3)C(C)(C)C)cc1` [Compound A22, (2S,4R)-1-((S)-2-(4-((4-(4′-bromo-5′-oxo-5′H-spiro[cyclohexane-1,7′-indolo[1,2-a]quinazolin]-9′-yl)piperidin-1-yl)methyl)bicyclo[2.2.1]heptane-1-carboxamido)-3,3-dimethylbutanoyl)-4-hydroxy-N—((R)-1-(4-(4-methylthiazol-5-yl)phenyl)-2-morpholinoethyl)pyrrolidine-2-carboramide]: at SMARCA2 (setting [1]), the “SMARC A2 Hela HiBit Dmax (%)” value was “A (A (>90% degradation))”. The DC50 on SMARCA2 and on SMARCA4 was below 100 nM in each case. Besides, the “SMARC A4 Hela HiBit Dmax(%)” value at SMARCA4 (setting [2]) was “A (A (>90% degradation))”.

`Cc1ncoc1-c1ccc([C@H](CN2CCOCC2)NC(=O)[C@@H]2C[C@@H](O)CN2C(=O)[C@@H](n2cc([C@H]3CC[C@H](CN4CCC(c5ccc6c(c5)-n5c(nc(=O)c7c(Cl)cccc75)C65CCCCC5)CC4)CC3)nn2)C(C)(C)C)cc1` [Compound A165, (2S,4R)-1-((S)-2-(4-((1r,4S)-4-((4-(4′-chloro-5′-oxo-5′H-spiro[cyclohexane-1,7′-indolo[1,2-a]quinazolin]-10′-yl)piperidin-1-yl)methyl)cyclohexyl)-1H-1,2,3-triazol-1-yl)-3,3-dimethylbutanoyl)-4-hydroxy-N—((R)-1-(4-(4-methyloxazol-5-yl)phenyl)-2-morpholinoethyl)pyrrolidine-2-carboxamide]: the DC50 on SMARCA2 (setting [1]) was below 10 nM; at SMARCA4 (setting [2]), above 1000 nM. In addition, the Dmax was above 90% on SMARCA2 (setting [1]) and below 50% at SMARCA4 (setting [3]).

On to `Cc1ncsc1-c1ccc([C@H](C)NC(=O)[C@@H]2C[C@@H](O)CN2C(=O)[C@@H](n2cc(CCCN3CCC(c4ccc5c(c4)C4(CCCCC4)c4nc(=O)c6c(Br)cccc6n4-5)CC3)nn2)C(C)(C)C)cc1` [Compound A55, (2S,4R)-1-((S)-2-(4-(3-(4-(4′-bromo-5′-oxo-5′H-spiro[cyclohexane-1,7′-indolo[1,2-a]quinazolin]-9′-yl)piperidin-1-yl)propyl)-1H-1,2,3-triazol-1-yl)-3,3-dimethylbutanoyl)-4-hydroxy-N—((S)-1-(4-(4-methylthiazol-5-yl)phenyl)ethyl)pyrrolidine-2-carboxamide], for which the DC50 on SMARCA2 (setting [1]) and on SMARCA4 (setting [2]) was below 100 nM throughout. For the same molecule, the Dmax at SMARCA2 (setting [1]) and on SMARCA4 (setting [4]) was above 90% each time.

`CC(C)(C)[C@H](NC(=O)C1(F)CC1)C(=O)N1C[C@H](O)C[C@H]1C(=O)N[C@@H](CCCCCN1CCC(c2ccc3c(c2)-n2c(nc(=O)c4c(Br)cccc42)C32CCCCC2)CC1)c1ccc(Cl)cc1` [Compound A26, (2S,4R)—N—((S)-6-(4-(4′-bromo-5′-oxo-5′H-spiro[cyclohexane-1,7′-indolo[1,2-a]quinazolin]-10′-yl)piperidin-1-yl)-1-(4-chlorophenyl)hexyl)-1-((S)-2-(1-fluorocyclopropane-1-carboxamido)-3,3-dimethylbutanoyl)-4-hydroxypyrrolidine-2-carboxamide]: the “SMARC A2 Hela HiBit Dmax (%)” value on SMARCA2 (setting [1]) is recorded as “D (D (<50% degradation))”. The DC50 at SMARCA2 and on SMARCA4 was above 1000 nM in each case. Further, on SMARCA4 (setting [2]), the “SMARC A4 Hela HiBit Dmax(%)” value is on record as “D (D (<50% degradation))”.

Take `Cc1ncsc1-c1ccc([C@H](C)NC(=O)[C@@H]2C[C@@H](O)CN2C(=O)[C@@H](NC(=O)C23CCC(CN4CCC(c5ccc6c(c5)-n5c(nc(=O)c7c(Br)cccc75)C65CCCCC5)CC4)(CC2)C3)C(C)(C)C)cc1` [Compound A23, (2S,4R)-1-((S)-2-(4-((4-(4′-bromo-5′-oxo-5′H-spiro[cyclohexane-1,7′-indolo[1,2-a]quinazolin]-10′-yl)piperidin-1-yl)methyl)bicyclo[2.2.1]heptane-1-carboxamido)-3,3-dimethylbutanoyl)-4-hydroxy-N—((S)-1-(4-(4-methylthiazol-5-yl)phenyl)ethyl)pyrrolidine-2-carboxamide]: the results for the Dmax on SMARCA2 (HeLa) and at SMARCA4 (setting [4]) were above 90% and 70 to 90%, respectively. The DC50 on SMARCA2 was below 100 nM; at SMARCA4 it was 100 to 500 nM.

For the molecule `Cc1ncsc1-c1ccc([C@H](CN2CCOCC2)NC(=O)[C@@H]2C[C@@H](O)CN2C(=O)[C@H](C2CCOCC2)n2cc([C@H]3CC[C@H](CN4CCC(c5ccc6c(c5)-n5c(nc(=O)c7c(Br)cccc75)C65CCCCC5)CC4)CC3)nn2)cc1` [Compound A101, (2S,4R)-1-((S)-2-(4-((1r,4S)-4-((4-(4′-bromo-5′-oxo-5′H-spiro[cyclohexane-1,7′-indolo[1,2-a]quinazolin]-10′-yl)piperidin-1-yl)methyl)cyclohexyl)-1H-1,2,3-triazol-1-yl)-2-(tetrahydro-2H-pyran-4-yl)acetyl)-4-hydroxy-N-((R)-1-(4-(4-methylthiazol-5-yl)phenyl)-2-morpholinoethyl)pyrrolidine-2-carboxamide], the DC50 was below 10 nM at SMARCA2 (setting [1]) and 10 to 100 nM on SMARCA4 (setting [2]). For the same molecule, the Dmax on SMARCA2 (setting [1]) was above 90%; at SMARCA4 (setting [3]), 70 to 90%.

Regarding `Cc1ncsc1-c1ccc([C@H](C)NC(=O)[C@@H]2C[C@@H](O)CN2C(=O)[C@@H](n2cc(CN3CCC(c4ccc5c(c4)-n4c(nc(=O)c6c(Br)cccc64)C54CCCCC4)CC3)nn2)C(C)(C)C)cc1` [Compound A43, (2S,4R)-1-((S)-2-(4-((4-(4′-bromo-5′-oxo-5′H-spiro[cyclohexane-1,7′-indolo[1,2-a]quinazolin]-10′-yl)piperidin-1-yl)methyl)-1H-1,2,3-triazol-1-yl)-3,3-dimethylbutanoyl)-4-hydroxy-N—((S)-1-(4-(4-methylthiazol-5-yl)phenyl)ethyl)pyrrolidine-2-carboxamide], the DC50 at SMARCA2 (setting [1]) and at SMARCA4 (setting [2]) was below 100 nM throughout. Further, the maximal degradation (Dmax) was above 90% on SMARCA2 (setting [1]) and 70 to 90% on SMARCA4 (setting [4]).

Turning to `Cc1ncsc1-c1ccc([C@H](CN(C)C)NC(=O)[C@@H]2C[C@@H](O)CN2C(=O)[C@@H](NC(=O)[C@H]2CC[C@H](CN3CCC(c4ccc5c(c4)C4(CCCCC4)c4nc(=O)c6c(Br)cccc6n4-5)CC3)CC2)C(C)(C)C)cc1` [Compound A15], the DC50 at SMARCA2 (setting [1]) was below 100 nM. In addition, the Dmax at SMARCA2 (setting [1]) was above 90%; at SMARCA4 (setting [4]), below 50%. Also, the “SMARC A4 Hela HiBit DC50(nM)” value at SMARCA4 (setting [2]) is “No Fit”.

`Cc1ncsc1-c1ccc([C@H](C)NC(=O)[C@@H]2C[C@@H](O)CN2C(=O)[C@@H](n2cc([C@H]3CC[C@H](CN4CCC(c5ccc6c(c5)-n5c(nc(=O)c7c(Cl)cccc75)C6(C)C)CC4)CC3)nn2)C(C)(C)C)cc1` [Compound A89, (2S,4R)-1-((S)-2-(4-((1r,4S)-4-((4-(4-chloro-7,7-dimethyl-5-oxo-5,7-dihydroindolo[1,2-a]quinazolin-10-yl)piperidin-1-yl)methyl)cyclohexyl)-1H-1,2,3-triazol-1-yl)-3,3-dimethylbutanoyl)-4-hydroxy-N—((S)-1-(4-(4-methylthiazol-5-yl)phenyl)ethyl)pyrrolidine-2-carboxamide]: the DC50 on SMARCA2 (setting [1]) was below 10 nM; at SMARCA4 (setting [2]), above 1000 nM. For the same molecule, the Dmax was above 90% on SMARCA2 (setting [1]) and 50 to 69% at SMARCA4 (setting [3]).

For the origin of these results see patent US20260092071A1, “COMPOUNDS AND COMPOSITIONS AS SMARCA2/4 DEGRADERS AND USES THEREOF” (REGENTS OF THE UNIVERSITY OF MICHIGAN, priority 2022, published 2026).
